Source: patent US10588317B2, “Isoxazoline-substituted benzamides and analogues as insecticides” (priority 2015, dated 2020)

Tests used:
Format in all cases: in vivo
Thrips tabaci = Thrips tabaci (onion thrips): feeding/contact activity; settings: 144 h, application rate 200 ppm, Thrips population of mixed ages, 6 days after infestation, read-out: mortality
Description: (§1) Sunflower leaf discs were placed on agar in 24-well microtiter plates and sprayed with aqueous test solutions prepared from 10'000 ppm DMSO stock solutions. After drying the leaf discs were infested with a Thrips population of mixed ages. The samples were assessed for mortality 6 days after infestation.

Plutella xylostella = Plutella xylostella (diamond back moth), artificial diet; settings: 120 h, application rate 200 ppm, L2 larvae, 5 days after infestation, read-out: effect in at least one of the two categories (mortality or growth inhibition)
In short: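 L2 larvae (10-15 per well) fed on compound-treated, dried artificial diet; test solutions diluted in water from 10'000 ppm DMSO stocks. Readout 5 days post-infestation as mortality or growth inhibition versus untreated diet, with at least 80% effect at 200 ppm as threshold.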

Diabrotica balteata = Diabrotica balteata (corn root worm), sprayed maize sprouts; settings: 96 h, application rate 200 ppm, L2 larvae, 4 days after infestation, read-out: effect in at least one of the two categories (mortality or growth inhibition)
In short: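 Read-out at 4 days post-infestation: mortality and growth inhibition relative to untreated samples. Test solutions (200 ppm, from DMSO stocks) were sprayed onto agar-held maize sprouts, which after drying received 6–10 L2 larvae per well.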

Tetranychus urticae = Tetranychus urticae (two-spotted spider mite): feeding/contact activity; settings: 192 h, application rate 200 ppm, mixed population (mobile stages), 8 days after infestation, read-out: mortality
Description: as §1, with “Bean” for “Sunflower”, “discs” for “discs were placed”, “were” for “and”, “mite” for “Thrips”, “on mixed population (mobile stages) 8” for “6”

Euschistus heros = Euschistus heros (neotropical brown stink bug), sprayed soybean leaves; settings: 120 h, application rate 200 ppm, N2 nymphs, 5 days after infestation, read-out: effect in at least one of the two categories (mortality or growth inhibition)
In short: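 Scored 5 days post-infestation versus untreated controls, for both mortality and growth inhibition: N2 nymphs placed on agar-mounted soybean leaves previously sprayed at 200 ppm with aqueous test solutions from DMSO stocks and left to dry.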

Spodoptera littoralis = Spodoptera littoralis (Egyptian cotton leaf worm), sprayed cotton leaf discs; settings: foliar, 72 h, application rate 200 ppm, L1 larvae, 3 days after infestation, read-out: control (mortality, anti-feeding effect, growth inhibition)
In short: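 Five first-instar larvae placed on dried cotton leaf discs (on agar) previously sprayed with aqueous dilutions of 10'000 ppm DMSO stocks. Scored at 3 days against untreated discs for mortality, feeding inhibition and growth inhibition; any category above untreated counts as control.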

Myzus persicae = Myzus persicae (green peach aphid): feeding/contact activity; settings: 144 h, application rate 200 ppm, aphid population of mixed ages, 6 days after infestation, read-out: mortality
Description: Sunflower leaf discs were placed onto agar in a 24-well microtiter plate and sprayed with aqueous test solutions prepared from 10'000 ppm DMSO stock solutions. After drying, the leaf discs were infested with an aphid population of mixed ages. The samples were assessed for mortality 6 days after infestation.

Cc1cc(C2=NO[C@@](c3cc(Cl)c(F)c(Cl)c3)(C(F)(F)F)C2)ccc1C(=O)NC1CON(S(=O)(=O)N(C)C(=O)c2ccccc2)C1 (stereo partly drawn) [Compound A80, N-[2-[benzoyl(methyl)sulfamoyl]isoxazolidin-4-yl]-4-[(5S)-5-(3,5-dichloro-4-fluoro-phenyl)-5-(trifluoromethyl)-4H-isoxazol-3-yl]-2-methyl-benzamide]
≥ 80%: mortality at 200 ppm (Thrips tabaci) | percent effect (mortality or growth inhibition) at 200 ppm (Plutella xylostella) | percent effect (mortality or growth inhibition) at 200 ppm (Diabrotica balteata) | mortality at 200 ppm (Tetranychus urticae) | percent effect (mortality or growth inhibition) at 200 ppm (Euschistus heros) | mortality at 200 ppm (Spodoptera littoralis) | mortality at 200 ppm (Myzus persicae)

Cc1cc(C2=NO[C@@](c3cc(Cl)cc(Cl)c3)(C(F)(F)F)C2)ccc1C(=O)N[C@@H]1CON(S(N)(=O)=O)C1 [Compound A178, 4-[(5S)-5-(3,5-dichlorophenyl)-5-(trifluoromethyl)-4H-1,2-oxazol-3-yl]-2-methyl-N-[(4S)-2-sulfamoyl-1,2-oxazolidin-4-yl]benzamide]
≥ 80%: mortality at 200 ppm (Thrips tabaci) | percent effect (mortality or growth inhibition) at 200 ppm (Plutella xylostella) | percent effect (mortality or growth inhibition) at 200 ppm (Diabrotica balteata) | mortality at 200 ppm (Tetranychus urticae) | percent effect (mortality or growth inhibition) at 200 ppm (Euschistus heros) | mortality at 200 ppm (Spodoptera littoralis) | mortality at 200 ppm (Myzus persicae)

Cc1cc(C2=NO[C@@](c3cc(F)cc(C(F)(F)F)c3)(C(F)(F)F)C2)ccc1C(=O)N[C@@H]1CON(S(=O)(=O)N(C)C)C1 [Compound A169]
≥ 80%: mortality at 200 ppm (Thrips tabaci) | percent effect (mortality or growth inhibition) at 200 ppm (Plutella xylostella) | percent effect (mortality or growth inhibition) at 200 ppm (Diabrotica balteata) | mortality at 200 ppm (Tetranychus urticae) | percent effect (mortality or growth inhibition) at 200 ppm (Euschistus heros) | mortality at 200 ppm (Spodoptera littoralis) | mortality at 200 ppm (Myzus persicae)

Cc1cc(C2=NO[C@@](c3cc(Cl)cc(Cl)c3)(C(F)(F)F)C2)ccc1C(=O)N[C@@H]1CON(S(=O)(=O)CBr)C1 [Compound A173, N-[(4S)-2-(bromomethylsulfonyl)-1,2-oxazolidin-4-yl]-4-[(5S)-5-(3,5-dichlorophenyl)-5-(trifluoromethyl)-4H-1,2-oxazol-3-yl]-2-methylbenzamide]
≥ 80%: mortality at 200 ppm (Thrips tabaci) | percent effect (mortality or growth inhibition) at 200 ppm (Plutella xylostella) | percent effect (mortality or growth inhibition) at 200 ppm (Diabrotica balteata) | mortality at 200 ppm (Tetranychus urticae) | percent effect (mortality or growth inhibition) at 200 ppm (Euschistus heros) | mortality at 200 ppm (Spodoptera littoralis) | mortality at 200 ppm (Myzus persicae)

Cc1cc(C2=NOC(c3cc(Cl)c(C#N)c(Cl)c3)(C(F)(F)F)C2)ccc1C(=O)NC1CON(S(C)(=O)=O)C1 (centres unmarked) [Compound A50]
≥ 80%: mortality at 200 ppm (Thrips tabaci) | percent effect (mortality or growth inhibition) at 200 ppm (Plutella xylostella) | percent effect (mortality or growth inhibition) at 200 ppm (Diabrotica balteata) | mortality at 200 ppm (Tetranychus urticae) | percent effect (mortality or growth inhibition) at 200 ppm (Euschistus heros) | mortality at 200 ppm (Spodoptera littoralis) | mortality at 200 ppm (Myzus persicae)

Cc1cc(C2=NO[C@@](c3cc(Cl)cc(Cl)c3)(C(F)(F)F)C2)ccc1C(=O)N[C@@H]1CON(S(=O)(=O)C2CC2)C1 [Compound A230]
≥ 80%: mortality at 200 ppm (Thrips tabaci) | percent effect (mortality or growth inhibition) at 200 ppm (Plutella xylostella) | percent effect (mortality or growth inhibition) at 200 ppm (Diabrotica balteata) | mortality at 200 ppm (Tetranychus urticae) | percent effect (mortality or growth inhibition) at 200 ppm (Euschistus heros) | mortality at 200 ppm (Spodoptera littoralis) | mortality at 200 ppm (Myzus persicae)

Cc1cc(C2=NO[C@](c3cc(Cl)c(Cl)c(Cl)c3)(C(F)(F)F)C2)ccc1C(=O)N[C@H]1CON(S(=O)(=O)CF)C1 [Compound A216, N-[(4R)-2-(fluoromethylsulfonyl)-1,2-oxazolidin-4-yl]-2-methyl-4-[(5R)-5-(3,4,5-trichlorophenyl)-5-(trifluoromethyl)-4H-1,2-oxazol-3-yl]benzamide]
≥ 80%: mortality at 200 ppm (Thrips tabaci) | percent effect (mortality or growth inhibition) at 200 ppm (Plutella xylostella) | percent effect (mortality or growth inhibition) at 200 ppm (Diabrotica balteata) | mortality at 200 ppm (Tetranychus urticae) | percent effect (mortality or growth inhibition) at 200 ppm (Euschistus heros) | mortality at 200 ppm (Spodoptera littoralis) | mortality at 200 ppm (Myzus persicae)

Cc1cc(C2=NO[C@](c3cc(Cl)c(Cl)c(Cl)c3)(C(F)(F)F)C2)ccc1C(=O)N[C@H]1CON(S(=O)(=O)CCl)C1 [Compound A220, N-[(4R)-2-(chloromethylsulfonyl)-1,2-oxazolidin-4-yl]-2-methyl-4-[(5R)-5-(3,4,5-trichlorophenyl)-5-(trifluoromethyl)-4H-1,2-oxazol-3-yl]benzamide]
≥ 80%: mortality at 200 ppm (Thrips tabaci) | percent effect (mortality or growth inhibition) at 200 ppm (Plutella xylostella) | percent effect (mortality or growth inhibition) at 200 ppm (Diabrotica balteata) | mortality at 200 ppm (Tetranychus urticae) | percent effect (mortality or growth inhibition) at 200 ppm (Euschistus heros) | mortality at 200 ppm (Spodoptera littoralis) | mortality at 200 ppm (Myzus persicae)

Cc1cc(C2=NO[C@@](c3cc(Cl)c(Cl)c(Cl)c3)(C(F)(F)F)C2)ccc1C(=O)NC1CON(S(=O)(=O)NC(C)C)C1 (stereo partly drawn) [Compound A101, N-[2-(isopropylsulfamoyl)isoxazolidin-4-yl]-2-methyl-4-[(5S)-5-(3,4,5-trichlorophenyl)-5-(trifluoromethyl)-4H-isoxazol-3-yl]benzamide]
≥ 80%: mortality at 200 ppm (Thrips tabaci) | percent effect (mortality or growth inhibition) at 200 ppm (Plutella xylostella) | percent effect (mortality or growth inhibition) at 200 ppm (Diabrotica balteata) | mortality at 200 ppm (Tetranychus urticae) | percent effect (mortality or growth inhibition) at 200 ppm (Euschistus heros) | mortality at 200 ppm (Spodoptera littoralis) | mortality at 200 ppm (Myzus persicae)

Cc1cc(C2=NO[C@](c3cc(Cl)cc(C(F)(F)F)c3)(C(F)(F)F)C2)ccc1C(=O)N[C@H]1CON(S(=O)(=O)CCl)C1 [Compound A217]
≥ 80%: mortality at 200 ppm (Thrips tabaci) | percent effect (mortality or growth inhibition) at 200 ppm (Plutella xylostella) | percent effect (mortality or growth inhibition) at 200 ppm (Diabrotica balteata) | mortality at 200 ppm (Tetranychus urticae) | percent effect (mortality or growth inhibition) at 200 ppm (Euschistus heros) | mortality at 200 ppm (Spodoptera littoralis) | mortality at 200 ppm (Myzus persicae)

Cc1cc(C2=NO[C@](c3cc(Cl)c(F)c(Cl)c3)(C(F)(F)F)C2)ccc1C(=O)N[C@H]1CON(S(=O)(=O)NC(=O)OC(C)(C)C)C1 [Compound A209, tert-butyl N-[[(4R)-4-[[4-[(5R)-5-(3,5-dichloro-4-fluorophenyl)-5-(trifluoromethyl)-4H-1,2-oxazol-3-yl]-2-methylbenzoyl]amino]-1,2-oxazolidin-2-yl]sulfonyl]carbamate]
≥ 80%: mortality at 200 ppm (Thrips tabaci) | percent effect (mortality or growth inhibition) at 200 ppm (Plutella xylostella) | percent effect (mortality or growth inhibition) at 200 ppm (Diabrotica balteata) | mortality at 200 ppm (Tetranychus urticae) | percent effect (mortality or growth inhibition) at 200 ppm (Euschistus heros) | mortality at 200 ppm (Spodoptera littoralis) | mortality at 200 ppm (Myzus persicae)

CCN(C)S(=O)(=O)N1C[C@@H](NC(=O)c2ccc(C3=NO[C@@](c4cc(Cl)cc(Cl)c4)(C(F)(F)F)C3)cc2Cl)CO1 [Compound A129, 2-chloro-4-[(5S)-5-(3,5-dichlorophenyl)-5-(trifluoromethyl)-4H-isoxazol-3-yl]-N-[(4R)-2-[ethyl(methyl)sulfamoyl]isoxazolidin-4-yl]benzamide]
≥ 80%: mortality at 200 ppm (Thrips tabaci) | percent effect (mortality or growth inhibition) at 200 ppm (Plutella xylostella) | percent effect (mortality or growth inhibition) at 200 ppm (Diabrotica balteata) | mortality at 200 ppm (Tetranychus urticae) | percent effect (mortality or growth inhibition) at 200 ppm (Euschistus heros) | mortality at 200 ppm (Spodoptera littoralis) | mortality at 200 ppm (Myzus persicae)

CNS(=O)(=O)N1C[C@@H](NC(=O)c2ccc(C3=NO[C@](c4cc(F)cc(C(F)(F)F)c4)(C(F)(F)F)C3)cc2C)CO1 [Compound A180]
≥ 80%: mortality at 200 ppm (Thrips tabaci) | percent effect (mortality or growth inhibition) at 200 ppm (Plutella xylostella) | percent effect (mortality or growth inhibition) at 200 ppm (Diabrotica balteata) | mortality at 200 ppm (Tetranychus urticae) | percent effect (mortality or growth inhibition) at 200 ppm (Euschistus heros) | mortality at 200 ppm (Spodoptera littoralis) | mortality at 200 ppm (Myzus persicae)

Cc1cc(C2=NO[C@@](c3cc(Cl)c(C(F)F)c(Cl)c3)(C(F)(F)F)C2)ccc1C(=O)N[C@@H]1CON(S(C)(=O)=O)C1 [Compound A197, 4-[(5S)-5-[3,5-dichloro-4-(difluoromethyl)phenyl]-5-(trifluoromethyl)-4H-1,2-oxazol-3-yl]-2-methyl-N-[(4S)-2-methylsulfonyl-1,2-oxazolidin-4-yl]benzamide]
≥ 80%: mortality at 200 ppm (Thrips tabaci) | percent effect (mortality or growth inhibition) at 200 ppm (Plutella xylostella) | percent effect (mortality or growth inhibition) at 200 ppm (Diabrotica balteata) | mortality at 200 ppm (Tetranychus urticae) | percent effect (mortality or growth inhibition) at 200 ppm (Euschistus heros) | mortality at 200 ppm (Spodoptera littoralis) | mortality at 200 ppm (Myzus persicae)
